These results are taken from ChEMBL document CHEMBL1155381, “Optimization of 5-vinylaryl-3-pyridinecarbonitriles as PKCtheta inhibitors” (Bioorg Med Chem Lett, 2010).

The structures appear in SMILES notation. Values after ≈ are worked out from the molar mass of the structure shown.

Data set [1] can be described thus: AUC in NZBWF1/J mouse at 25 mg/kg, po. It is filed as ADME, organism-based. Details: dose 25 mg/kg, route oral. To be noted: plasma.
The nature of data set [2]: Cmax in NZBWF1/J mouse at 25 mg/kg, po. The arrangement: dose 25 mg/kg, route oral. To be noted: in vivo. It is filed as ADME, organism-based.
Data set [3] in a line: Aqueous solubility of compound. It is filed as physicochemical. To be noted: buffer.
For another data set, the system named is Mus musculus. The data set can be described thus: Cavg in NZBWF1/J mouse at 25 mg/kg, po. The format is ADME, organism-based. Details: dose 25 mg/kg, route oral. To be noted: in vivo.
A short description of data set [4]: Permeability by PAMPA. The format is ADME. The settings on record: read-out: permeability.

For orientation: AUC means concentration integrated over time. A high value points to high exposure. Usually Cmax stands for the maximum level reached in the sampled fluid or tissue. In general, solubility refers to the dissolved amount per volume that the medium holds. A higher solubility goes with much dissolved substance. `Cc1c(Nc2c(C#N)cncc2/C=C/c2cccc(CN3CCN(C)CC3)n2)ccc2[nH]ccc12` showed an AUC in data set [1] of 17.8 µM·h. In addition, the peak level in data set [2] (Cmax) was 2200 nM. In addition, the solubility in data set [3] is 61 µg/mL (≈ 132 µM). Besides, the Drug uptake in the data set with Mus musculus is recorded as 740 nM. For the same molecule, the Papp in data set [4] came to 0.39 ×10⁻⁶ cm/s.
